According to patent publication US11033556B2, “Bicyclic sulfonamides” (priority 2019, dated 2021):

tested on: genotype D HBV; experiment: HBV-DNA Antiviral Assay Using HepG2.117 Cells; assay type: cell-based; conditions: Hepatitis B virus, HepG2.117, 96 h, intracellular HBV DNA by qPCR, day 4
Procedure: The following assay procedure describes the HBV antiviral assay, using HepG2.117 cells, which carry a stably integrated genotype D HBV genome under the control of a Tet-off promoter, and intracellular HBV DNA quantification as endpoint. Cell viability is assessed in parallel by measuring the intracellular ATP content using ATPlite (Perkin Elmer).
On day 0, HepG2.117 cells (which are maintained in routine cell culture with doxycycline present in the medium at a final concentration of 1 μg/mL) were seeded in 96-well plates (white with clear bottom) at a density of 2.0×10^4 cells/well (0.1 mL/well) in medium without doxycycline to induce pgRNA transcription and subsequent formation of HBV particles. The cells were incubated at 37° C. and 5% CO2.
On day 1, medium was removed from each well, the test articles were diluted in culture medium without doxcycyline and 100 μL was added to cell culture wells (9 concentrations, 4-fold dilution). For each plate, 6 untreated (merely DMSO) wells were included. The final concentration of DMSO in the culture medium was 2%. Each plate was prepared in duplicate (one for HBV DNA extraction, one for ATPlite measurement). The cells were incubated at 37° C. and 5% CO2 for 3 days.
On day 4, cell viability was assessed using ATPlite and cell lysates were prepared for HBV DNA extraction and subsequent quantification by qPCR.
Medium was removed from each well and 100 μL of 0.33% NP-40 in H2O was added to each well. Plates were sealed, incubated at 4° C. for 5 mins, vortexed extensively and centrifuged briefly. Next, 35 μL of lysate was added to 65 μL QuickExtract DNA Extraction Solution (Epicentre) in a PCR plate for each well. PCR plate was incubated at 65° C. for 6 mins, 98° C. for 2 mins and finally cooled to 4° C. HBV DNA was then quantified by qPCR with HBV-specific primers and probes as specified in Table 4 using the Bio-Rad SSOAdvanced Universal Probes Supermix on a CFX96 machine (Bio-Rad). The PCR cycle program consisted of 95° C. for 3 mins, followed by 40 cycles at 95° C. for 10 sec and 60° C. for 30 sec.
A DNA standard was prepared by dilution of an IDT gBlock corresponding to the amplicon with concentrations ranging from 10^2 to 10^8 copies/input (i.e. per 4 μL) and used to generate a standard curve by plotting Cq values vs. HBV DNA standard concentration. The quantity of HBV DNA in each sample was determined by interpolating from the standard curve.
Cell viability was calculated as follows: % Cell viability=(luminescence value of test sample)/(average luminescence value of 2% DMSO control)×100%. HBV DNA inhibition was calculated as follows: 100−(HBV DNA copy number of test sample)/(average HBV DNA copy number of 2% DMSO control)×100%. No normalization to entecavir was required due to the excellent dynamic window of this assay. The CC50, EC50 and EC90 values were determined by dose-response curves fitted by GraphPad Prism using “log (agonist) vs. response—Variable slope”.

SMILES	EC50
C=CC[C@H]1COc2c(cn(C)c2C(=O)Nc2ccc(F)c(C#N)c2)S(=O)(=O)N1 [Compound 47]	1 to 10 nM
C=C[C@H]1COc2c(cn(C)c2C(=O)Nc2ccc(F)c(C(F)(F)F)c2)S(=O)(=O)N1 [Compound 24]	1 to 10 nM
C=C[C@@](O)([C@H]1COc2c(cn(C)c2C(=O)Nc2ccc(F)c(C(F)(F)F)c2)S(=O)(=O)N1)C(F)(F)F [Compound 20]	1 to 10 nM
C=CC(C)(C)[C@H]1COc2c(cn(C)c2C(=O)Nc2ccc(F)c(C#N)c2)S(=O)(=O)N1 [Compound 45A]	1 to 10 nM
C=C[C@]1(C)COc2c(cn(C)c2C(=O)Nc2ccc(F)c(C#N)c2)S(=O)(=O)N1 [Compound 15A]	1 to 10 nM
C=C[C@]1(CO)COc2c(cn(C)c2C(=O)Nc2ccc(F)c(C(F)(F)F)c2)S(=O)(=O)N1 [Compound 31B]	1 to 10 nM
C=CC[C@](C)(O)[C@H]1COc2c(cn(C)c2C(=O)Nc2ccc(F)c(C#N)c2)S(=O)(=O)N1 [Compound 40A]	1 to 10 nM
C=C[C@H](O)[C@@]1(C)COc2c(cn(C)c2C(=O)Nc2ccc(F)c(C#N)c2)S(=O)(=O)N1 [Compound 41C]	10 to 100 nM
C=C[C@@]1(CO)COc2c(cn(C)c2C(=O)Nc2ccc(F)c(C#N)c2)S(=O)(=O)N1 [Compound 30A]	1 to 10 nM
C=CC[C@@]1(C)COc2c(cn(C)c2C(=O)Nc2ccc(F)c(C#N)c2)S(=O)(=O)N1 [Compound 16B]	1 to 10 nM
C=C[C@@](C)(O)[C@H]1COc2c(cn(C)c2C(=O)Nc2ccc(F)c(C#N)c2)S(=O)(=O)N1 [Compound 28A]	1 to 10 nM
C=C[C@@](C)(O)[C@H]1CCc2c(cn(C)c2C(=O)Nc2ccc(F)c(C#N)c2)S(=O)(=O)N1 [Compound 11B]	1 to 10 nM
C=C[C@@]1(CO)COc2c(cn(C)c2C(=O)Nc2ccc(F)c(C(F)(F)F)c2)S(=O)(=O)N1 [Compound 31A]	1 to 10 nM
C=C[C@](O)([C@@H]1COc2c(cn(C)c2C(=O)Nc2ccc(F)c(C(F)(F)F)c2)S(=O)(=O)N1)C(F)(F)F [Compound 26]	10 to 100 nM
C=C[C@]1(C)COc2c(cn(C)c2C(=O)Nc2ccc(F)c(C(F)(F)F)c2)S(=O)(=O)N1 [Compound 23B]	1 to 10 nM
C=C[C@@]1([C@H](C)O)COc2c(cn(C)c2C(=O)Nc2ccc(F)c(C#N)c2)S(=O)(=O)N1 [Compound 38A]	10 to 100 nM
C=C[C@@]1(CO)CCc2c(cn(C)c2C(=O)Nc2ccc(F)c(C#N)c2)S(=O)(=O)N1 [Compound 10A]	10 to 100 nM
CC#C[C@H](O)[C@H]1COc2c(cn(C)c2C(=O)Nc2ccc(F)c(C(F)(F)F)c2)S(=O)(=O)N1 [Compound 22A]	10 to 100 nM
C=CC[C@@H](O)[C@@H]1COc2c(cn(C)c2C(=O)Nc2ccc(F)c(C#N)c2)S(=O)(=O)N1 [Compound 25A]	10 to 100 nM

SMILES	EC50
C=CC[C@H](O)[C@H]1COc2c(cn(C)c2C(=O)Nc2ccc(F)c(C#N)c2)S(=O)(=O)N1 [Compound 17A]	1 to 10 nM
C=CC[C@@H](O)[C@@]1(C)COc2c(cn(C)c2C(=O)Nc2ccc(F)c(C#N)c2)S(=O)(=O)N1 [Compound 44B]	1 to 10 nM
C#C[C@H](O)[C@]1(C)COc2c(cn(C)c2C(=O)Nc2ccc(F)c(C#N)c2)S(=O)(=O)N1 [Compound 42A]	1 to 10 nM
C=C[C@@]1(C)COc2c(cn(C)c2C(=O)Nc2ccc(F)c(C#N)c2)S(=O)(=O)N1 [Compound 15B]	1 to 10 nM
C#C[C@H](O)[C@H]1COc2c(cn(C)c2C(=O)Nc2ccc(F)c(C#N)c2)S(=O)(=O)N1 [Compound 18]	1 to 10 nM
Cn1cc2c(c1C(=O)Nc1ccc(F)c(C#N)c1)OC[C@H](CC=C(F)F)NS2(=O)=O [Compound 13]	1 to 10 nM
C=C(C)[C@H]1COc2c(cn(C)c2C(=O)Nc2ccc(F)c(C(F)(F)F)c2)S(=O)(=O)N1 [Compound 33]	1 to 10 nM
C=CC(O)([C@H]1COc2c(cn(C)c2C(=O)Nc2ccc(F)c(C#N)c2)S(=O)(=O)N1)C(F)(F)F (some centres unmarked) [Compound 34]	< 1 nM
C#C[C@@H](O)[C@]1(C)COc2c(cn(C)c2C(=O)Nc2ccc(F)c(C#N)c2)S(=O)(=O)N1 [Compound 42D]	10 to 100 nM
C=C[C@]1(CO)COc2c(cn(C)c2C(=O)Nc2ccc(F)c(C#N)c2)S(=O)(=O)N1 [Compound 30B]	10 to 100 nM
C=C[C@](C)(O)[C@H]1COc2c(cn(C)c2C(=O)Nc2ccc(F)c(C#N)c2)S(=O)(=O)N1 [Compound 28B]	1 to 10 nM
C=C[C@]1([C@@H](C)O)COc2c(cn(C)c2C(=O)Nc2ccc(F)c(C#N)c2)S(=O)(=O)N1 [Compound 38B]	10 to 100 nM
C=C[C@H]1CCc2c(cn(C)c2C(=O)Nc2ccc(F)c(C#N)c2)S(=O)(=O)N1 [Compound 8]	1 to 10 nM
C#C[C@@](C)(O)[C@H]1COc2c(cn(C)c2C(=O)Nc2ccc(F)c(C#N)c2)S(=O)(=O)N1 [Compound 35B]	1 to 10 nM
C#C[C@@](C)(O)[C@H]1COc2c(cn(C)c2C(=O)Nc2ccc(F)c(C(F)(F)F)c2)S(=O)(=O)N1 [Compound 36B]	1 to 10 nM
C=C[C@]1([C@H](C)O)COc2c(cn(C)c2C(=O)Nc2ccc(F)c(C#N)c2)S(=O)(=O)N1 [Compound 38C]	1 to 10 nM
C=C[C@@H](C)[C@@H]1COc2c(cn(C)c2C(=O)Nc2ccc(F)c(C#N)c2)S(=O)(=O)N1 [Compound 27D]	< 1 nM
C=CC1([C@@H]2COc3c(cn(C)c3C(=O)Nc3ccc(F)c(C#N)c3)S(=O)(=O)N2)CCS(=O)(=O)CC1 [Compound 43B]	10 to 100 nM
C=C[C@H](C)[C@@H]1COc2c(cn(C)c2C(=O)Nc2ccc(F)c(C#N)c2)S(=O)(=O)N1 [Compound 27B]	1 to 10 nM

SMILES	EC50
CC#C[C@@H](O)[C@H]1COc2c(cn(C)c2C(=O)Nc2ccc(F)c(C#N)c2)S(=O)(=O)N1 [Compound 19B]	1 to 10 nM
C=C[C@@](C)(O)[C@H]1COc2c(cn(C)c2C(=O)Nc2ccc(F)c(C(F)(F)F)c2)S(=O)(=O)N1 [Compound 29A]	10 to 100 nM
C=CC1([C@H]2COc3c(cn(C)c3C(=O)Nc3ccc(F)c(C#N)c3)S(=O)(=O)N2)CCOCC1 [Compound 39A]	10 to 100 nM
C=C[C@@H](O)[C@@]1(C)COc2c(cn(C)c2C(=O)Nc2ccc(F)c(C#N)c2)S(=O)(=O)N1 [Compound 41B]	1 to 10 nM
C=C[C@H](C)[C@H]1COc2c(cn(C)c2C(=O)Nc2ccc(F)c(C#N)c2)S(=O)(=O)N1 [Compound 27C]	10 to 100 nM
C#C[C@@](C)(O)[C@H]1CCc2c(cn(C)c2C(=O)Nc2ccc(F)c(C#N)c2)S(=O)(=O)N1 [Compound 12B]	10 to 100 nM
C=C[C@](O)([C@@H]1COc2c(cn(C)c2C(=O)Nc2ccc(F)c(C#N)c2)S(=O)(=O)N1)C(F)(F)F [Compound 21]	10 to 100 nM
C=CC[C@H](O)[C@@H]1COc2c(cn(C)c2C(=O)Nc2ccc(F)c(C#N)c2)S(=O)(=O)N1 [Compound 25B]	10 to 100 nM
C#C[C@](C)(O)[C@H]1CCc2c(cn(C)c2C(=O)Nc2ccc(F)c(C#N)c2)S(=O)(=O)N1 [Compound 12A]	10 to 100 nM
C#C[C@H](O)[C@@]1(C)COc2c(cn(C)c2C(=O)Nc2ccc(F)c(C#N)c2)S(=O)(=O)N1 [Compound 42C]	1 to 10 nM
C=C[C@](C)(O)[C@H]1CCc2c(cn(C)c2C(=O)Nc2ccc(F)c(C#N)c2)S(=O)(=O)N1 [Compound 11A]	1 to 10 nM
C=C[C@@H](O)[C@]1(C)COc2c(cn(C)c2C(=O)Nc2ccc(F)c(C#N)c2)S(=O)(=O)N1 [Compound 41D]	10 to 100 nM
C#C[C@](C)(O)[C@H]1COc2c(cn(C)c2C(=O)Nc2ccc(F)c(C(F)(F)F)c2)S(=O)(=O)N1 [Compound 36A]	10 to 100 nM
C=CC[C@]1(C)COc2c(cn(C)c2C(=O)Nc2ccc(F)c(C#N)c2)S(=O)(=O)N1 [Compound 16A]	1 to 10 nM
C=CC[C@@](C)(O)[C@H]1COc2c(cn(C)c2C(=O)Nc2ccc(F)c(C#N)c2)S(=O)(=O)N1 [Compound 40B]	1 to 10 nM
C=CC1([C@@H]2COc3c(cn(C)c3C(=O)Nc3ccc(F)c(C#N)c3)S(=O)(=O)N2)CCOCC1 [Compound 39B]	10 to 100 nM
C=C[C@H](O)[C@]1(C)COc2c(cn(C)c2C(=O)Nc2ccc(F)c(C#N)c2)S(=O)(=O)N1 [Compound 41A]	1 to 10 nM
C=CC1([C@H]2COc3c(cn(C)c3C(=O)Nc3ccc(F)c(C#N)c3)S(=O)(=O)N2)CCS(=O)(=O)CC1 [Compound 43A]	10 to 100 nM
